Results: patent publication US12187681B2 (Shanghai East Hospital, priority 2019, dated 2025)
Structures can show the parent of a compound that is named as a salt.

Legend:
Format in all cases: cell-based
[1] = biological target: T1, human ERG (ether-a-go-go related gene) potassium channel (Homo sapiens, UniProt Q12809); test: hERG channel whole-cell patch clamp (Ion Channel Activity Measurement); details: room temperature; for hERG 1 μM (ion-channel inhibition): 1 μM test article; for hERG 10 μM (ion-channel inhibition): 10 μM test article
T1 construct: expressed in transfected cells; host or cells: HEK293
Procedure, shortened: (§1)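 HEK293 cells stably expressing hERG (NM_000238) were recorded by whole-cell patch clamp at 23-25° C. Holding potential −80 mV, step to 30 mV for 2.5 s, tail currents at −50 mV for 4 s, pulses every 10 s. Each concentration was perfused low to high for 5 min or to steady state, with each cell as its own control.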

[2] = biological target: T2, human calcium channel, voltage-dependent, L type (CaV1.2: CACNA1C, CACNB2, CACNA2D1) (Homo sapiens, UniProt Q13936); test: CaV1.2 channel whole-cell patch clamp (Ion Channel Activity Measurement); details: room temperature; for Cav1.2 1 μM (ion-channel inhibition): 1 μM test article; for CaV 1.2 10 μM (ion-channel inhibition): 10 μM test article
T2 construct: expressed in transfected cells; host or cells: CHO
Procedure, shortened: (§2)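 Whole-cell patch clamp was run on CHO cells stably expressing CACNA1C/CACNB2/CACNA2D1 at 23–25 °C, with 10 mM CaCl2 TEA bath (pH 7.4) and CsCl pipette solution (pH 7.2). Currents were evoked from −80 mV to +10 mV for 0.3 s every 20 s without leak subtraction. Ascending concentrations were each applied for 5 min or until steady state.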

[3] = biological target: T3, hERG (human ether-a-go-go related gene potassium channel, KCNH2) (Homo sapiens, UniProt Q12809); test: hERG channel whole-cell patch clamp (Ion Channel Activity Measurement); details: human, HEK293 cells expressing the human ERG potassium channel, room temperature; for inhibition at 1 μM: pH 7.4, 1 μM test article; for inhibition at 10 μM: pH 7.4, 10 μM test article
T3 construct: expressed in transfected cells; host or cells: HEK293
Procedure, shortened: as §1

[4] = biological target: T4, CaV1.2 (L-type voltage-dependent calcium channel; CACNA1C, CACNB2, CACNA2D1) (Homo sapiens, UniProt Q13936); test: CaV1.2 channel whole-cell patch clamp (Ion Channel Activity Measurement); details: human, room temperature; for inhibition at 5 min, 1 μM: pH 7.4, 1 μM test article; for inhibition at 5 min, 10 μM: pH 7.4, 10 μM test article, read-out: CaV 1.2 10 μM (ion-channel inhibition)
T4 construct: expressed in transfected cells; host or cells: CHO
T4 sequence (Q13936 1-2138 isoform Q13936-12): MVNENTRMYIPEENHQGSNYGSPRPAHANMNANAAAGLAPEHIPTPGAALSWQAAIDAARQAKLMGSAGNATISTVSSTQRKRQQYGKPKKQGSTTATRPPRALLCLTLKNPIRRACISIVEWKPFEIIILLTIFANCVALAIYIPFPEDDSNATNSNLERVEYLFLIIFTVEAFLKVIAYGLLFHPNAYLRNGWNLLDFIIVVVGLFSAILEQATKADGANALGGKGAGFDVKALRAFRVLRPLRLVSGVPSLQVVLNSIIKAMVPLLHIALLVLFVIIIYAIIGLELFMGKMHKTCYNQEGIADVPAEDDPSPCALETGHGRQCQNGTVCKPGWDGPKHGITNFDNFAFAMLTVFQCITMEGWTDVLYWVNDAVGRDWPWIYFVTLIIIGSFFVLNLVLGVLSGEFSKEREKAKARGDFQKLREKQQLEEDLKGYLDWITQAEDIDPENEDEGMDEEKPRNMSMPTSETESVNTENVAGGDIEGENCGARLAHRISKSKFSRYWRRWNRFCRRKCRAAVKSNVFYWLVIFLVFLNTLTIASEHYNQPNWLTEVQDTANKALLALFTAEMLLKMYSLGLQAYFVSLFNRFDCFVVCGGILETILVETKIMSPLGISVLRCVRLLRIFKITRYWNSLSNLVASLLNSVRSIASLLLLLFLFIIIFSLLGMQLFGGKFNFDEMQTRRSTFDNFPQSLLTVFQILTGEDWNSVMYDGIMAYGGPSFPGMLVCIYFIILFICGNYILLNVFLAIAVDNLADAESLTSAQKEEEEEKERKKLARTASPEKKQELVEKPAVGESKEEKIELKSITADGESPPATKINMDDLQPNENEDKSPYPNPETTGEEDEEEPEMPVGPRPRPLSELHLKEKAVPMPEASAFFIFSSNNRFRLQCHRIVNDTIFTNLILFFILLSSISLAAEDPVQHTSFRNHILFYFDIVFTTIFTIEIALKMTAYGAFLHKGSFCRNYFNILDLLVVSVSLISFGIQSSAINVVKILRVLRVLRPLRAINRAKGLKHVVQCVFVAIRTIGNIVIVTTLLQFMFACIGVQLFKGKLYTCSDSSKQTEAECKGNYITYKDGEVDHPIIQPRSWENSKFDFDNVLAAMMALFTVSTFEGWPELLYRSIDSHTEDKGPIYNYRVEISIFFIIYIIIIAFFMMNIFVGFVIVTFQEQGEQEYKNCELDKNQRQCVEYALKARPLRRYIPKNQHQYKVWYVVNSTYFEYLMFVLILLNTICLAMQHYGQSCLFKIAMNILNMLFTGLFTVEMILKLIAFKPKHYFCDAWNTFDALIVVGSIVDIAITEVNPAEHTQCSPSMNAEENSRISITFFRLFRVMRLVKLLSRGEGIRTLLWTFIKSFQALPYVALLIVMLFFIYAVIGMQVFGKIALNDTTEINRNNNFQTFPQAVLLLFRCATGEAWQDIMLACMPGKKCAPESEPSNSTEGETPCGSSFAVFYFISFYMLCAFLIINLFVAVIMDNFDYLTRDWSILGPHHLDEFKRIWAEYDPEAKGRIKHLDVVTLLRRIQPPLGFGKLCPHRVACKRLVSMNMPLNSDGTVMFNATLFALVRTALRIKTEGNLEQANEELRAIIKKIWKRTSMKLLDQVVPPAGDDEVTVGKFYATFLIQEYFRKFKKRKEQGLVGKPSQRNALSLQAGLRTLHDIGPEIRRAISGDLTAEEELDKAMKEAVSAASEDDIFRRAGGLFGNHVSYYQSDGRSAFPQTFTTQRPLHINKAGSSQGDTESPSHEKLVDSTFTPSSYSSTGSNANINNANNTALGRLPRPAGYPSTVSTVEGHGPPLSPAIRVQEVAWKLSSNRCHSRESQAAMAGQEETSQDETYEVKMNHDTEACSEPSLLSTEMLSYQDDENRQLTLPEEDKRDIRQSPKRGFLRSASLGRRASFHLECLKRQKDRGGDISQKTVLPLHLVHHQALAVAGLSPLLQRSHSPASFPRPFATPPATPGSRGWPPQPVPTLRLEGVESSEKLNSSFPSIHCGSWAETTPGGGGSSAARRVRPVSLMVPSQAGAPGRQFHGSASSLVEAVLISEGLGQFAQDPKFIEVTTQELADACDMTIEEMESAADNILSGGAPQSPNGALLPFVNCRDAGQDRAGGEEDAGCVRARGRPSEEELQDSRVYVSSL
T4 sequence (Q08289 1-605 isoform Q08289-2 partner): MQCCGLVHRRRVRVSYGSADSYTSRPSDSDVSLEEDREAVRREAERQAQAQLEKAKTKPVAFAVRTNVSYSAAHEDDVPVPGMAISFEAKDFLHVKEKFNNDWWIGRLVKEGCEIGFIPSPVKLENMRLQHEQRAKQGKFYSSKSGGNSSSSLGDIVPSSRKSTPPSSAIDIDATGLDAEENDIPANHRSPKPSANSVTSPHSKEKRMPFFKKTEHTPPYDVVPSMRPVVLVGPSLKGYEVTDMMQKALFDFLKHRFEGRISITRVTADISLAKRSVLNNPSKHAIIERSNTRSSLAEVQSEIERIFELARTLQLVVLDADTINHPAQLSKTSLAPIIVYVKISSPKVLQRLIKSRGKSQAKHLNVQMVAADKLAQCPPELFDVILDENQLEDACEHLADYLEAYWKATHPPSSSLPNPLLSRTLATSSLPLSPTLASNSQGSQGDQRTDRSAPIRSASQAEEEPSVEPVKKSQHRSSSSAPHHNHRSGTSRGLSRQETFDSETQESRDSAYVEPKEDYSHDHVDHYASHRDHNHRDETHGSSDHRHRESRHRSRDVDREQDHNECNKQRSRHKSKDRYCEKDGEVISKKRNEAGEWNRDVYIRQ
T4 sequence (P54289 25-1091 isoform P54289-2 partner limits assumed): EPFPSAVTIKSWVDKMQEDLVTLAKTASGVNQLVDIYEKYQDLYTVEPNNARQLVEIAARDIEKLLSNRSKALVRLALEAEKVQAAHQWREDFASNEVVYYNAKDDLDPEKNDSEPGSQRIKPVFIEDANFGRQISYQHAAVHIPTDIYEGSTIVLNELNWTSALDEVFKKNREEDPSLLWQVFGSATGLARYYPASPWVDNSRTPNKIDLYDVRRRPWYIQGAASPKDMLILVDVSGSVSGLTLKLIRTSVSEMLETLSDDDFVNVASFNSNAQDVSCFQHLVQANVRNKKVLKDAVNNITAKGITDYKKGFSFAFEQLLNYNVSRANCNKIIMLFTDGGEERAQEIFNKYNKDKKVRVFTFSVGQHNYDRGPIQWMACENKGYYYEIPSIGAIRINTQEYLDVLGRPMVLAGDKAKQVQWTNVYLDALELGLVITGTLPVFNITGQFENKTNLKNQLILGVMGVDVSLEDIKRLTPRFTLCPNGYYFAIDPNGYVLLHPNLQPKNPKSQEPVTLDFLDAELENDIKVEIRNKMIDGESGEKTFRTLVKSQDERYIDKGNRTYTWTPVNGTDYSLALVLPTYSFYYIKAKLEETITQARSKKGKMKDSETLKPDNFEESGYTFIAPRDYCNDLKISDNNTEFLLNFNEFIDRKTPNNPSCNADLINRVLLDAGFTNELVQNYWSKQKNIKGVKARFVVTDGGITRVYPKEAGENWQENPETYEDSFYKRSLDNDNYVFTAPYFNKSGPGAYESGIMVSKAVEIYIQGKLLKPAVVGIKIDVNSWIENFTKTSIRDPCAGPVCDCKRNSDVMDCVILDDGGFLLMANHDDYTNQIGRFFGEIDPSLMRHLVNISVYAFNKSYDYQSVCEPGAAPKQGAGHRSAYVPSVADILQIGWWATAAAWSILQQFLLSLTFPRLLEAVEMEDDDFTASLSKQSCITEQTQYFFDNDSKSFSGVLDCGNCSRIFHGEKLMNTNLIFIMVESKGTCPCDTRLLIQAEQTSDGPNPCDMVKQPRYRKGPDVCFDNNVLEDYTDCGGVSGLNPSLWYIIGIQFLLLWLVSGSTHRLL
T4 sequence (P54289 957-1103 partner limits assumed): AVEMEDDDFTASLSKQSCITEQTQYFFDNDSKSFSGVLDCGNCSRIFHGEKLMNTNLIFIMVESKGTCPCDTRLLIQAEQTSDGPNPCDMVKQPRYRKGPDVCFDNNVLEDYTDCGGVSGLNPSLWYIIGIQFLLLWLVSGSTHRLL
Procedure, shortened: as §2

[5] = biological target: T5, Iks potassium channel (KCNQ1/KCNE1) (Homo sapiens, UniProt P51787); test: Iks channel whole-cell patch clamp (Ion Channel Activity Measurement); details: human, CHO cells stably expressing Iks channel (KCNQ1 and KCNE1), room temperature; for inhibition at 5 min, 1 μM: pH 7.4, 1 μM test article; for inhibition at 5 min, 10 μM: pH 7.4, 10 μM test article
T5 construct: expressed in transfected cells; host or cells: CHO
T5 sequence (P51787 whole entry): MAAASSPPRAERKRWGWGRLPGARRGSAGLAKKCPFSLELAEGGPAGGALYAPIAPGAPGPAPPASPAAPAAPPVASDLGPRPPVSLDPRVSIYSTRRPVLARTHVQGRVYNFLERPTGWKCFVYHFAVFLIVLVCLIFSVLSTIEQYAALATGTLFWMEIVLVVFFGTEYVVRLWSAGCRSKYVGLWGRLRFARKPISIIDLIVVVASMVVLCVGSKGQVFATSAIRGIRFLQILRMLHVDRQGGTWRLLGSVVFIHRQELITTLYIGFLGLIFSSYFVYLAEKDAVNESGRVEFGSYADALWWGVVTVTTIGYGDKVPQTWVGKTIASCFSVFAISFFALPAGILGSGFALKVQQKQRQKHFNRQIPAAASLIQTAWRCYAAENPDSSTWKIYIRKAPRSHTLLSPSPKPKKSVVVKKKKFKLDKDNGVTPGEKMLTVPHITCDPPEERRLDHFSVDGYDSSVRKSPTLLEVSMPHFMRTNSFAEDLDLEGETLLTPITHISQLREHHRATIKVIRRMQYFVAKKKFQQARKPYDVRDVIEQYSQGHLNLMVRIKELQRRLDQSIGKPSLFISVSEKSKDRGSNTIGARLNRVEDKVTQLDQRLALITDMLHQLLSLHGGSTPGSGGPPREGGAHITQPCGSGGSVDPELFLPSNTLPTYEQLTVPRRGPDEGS

[6] = biological target: T6, Iks potassium voltage-gated channel (KCNQ1 and KCNE1) (Homo sapiens, UniProt P51787); test: as above; details: room temperature
T6 construct: expressed in transfected cells; host or cells: CHO

SMILES | inhibition at 5 min, 1 μM [5] [%] | inhibition at 5 min, 10 μM [5] [%] | hERG 1 μM (ion-channel inhibition) [1] | hERG 10 μM (ion-channel inhibition) [1] | Cav1.2 1 μM (ion-channel inhibition) [2] | CaV 1.2 10 μM (ion-channel inhibition) [2] | inhibition at 1 μM [3] [%] | inhibition at 10 μM [3] [%] | inhibition at 5 min, 1 μM [4] [%] | inhibition at 5 min, 10 μM [4] [%] | Iks 1 μM (ion-channel inhibition) ([6]; 1 μM test article) | Iks 10 μM (ion-channel inhibition) ([6]; 10 μM test article)
Oc1cccc(-c2ccccc2)c1Cc1c(O)cccc1-c1ccccc1 [Compound A034, 2,2″-methylenebis(([1,1′-biphenyl]-3-ol))] | – | – | D (D = <25%) | D (D = <25%) | D (D = <25%) | B (B = = 50-75%) | – | – | – | – | – | –
CCN(CC)CCOc1ccc2ccccc2c1Nc1c(OC)ccc2ccccc12 [Compound A111-I-1, 2-(2-(diethylamino)ethoxy)-N-(2-methoxynaphthalen-1-yl)naphthalen-1-amine] | < 25 | 75 to 100 | – | – | – | – | 75 to 100 | 75 to 100 | < 25 | – | – | –
O=S(=O)(Nc1ccc2ccccc2c1Cc1c(O)ccc2ccccc12)c1ccccc1 [Compound A026, N-(1-((2-hydroxynaphthalen-1-yl)methyl)naphthalen-2-yl)benzenesulfonamide] | 75 to 100 | 75 to 100 | – | – | – | – | < 25 | 25 to 50 | < 25 | 75 to 100 | – | –
CCN(CC)CCOc1ccc2ccccc2c1Cc1c(O)ccc2ccccc12.O=CO [Compound A093, 1-((2-(2-(diethylamino)ethoxy)naphthalen-1-yl)methyl)naphthalen-2-ol formate] | – | – | A (A = 75-100%) | A (A = 75-100%) | C (C = 25-50%) | A (A = 75-100%) | – | – | – | – | D (D = <25%) | A (A = 75-100%)
Cc1cc2ccccc2c(Cc2c(O)ccc3ccccc23)c1O [Compound A031, 1-((2-hydroxynaphthalen-1-yl)methyl)-3-methylnaphthalen-2-ol] | < 25 | 50 to 75 | – | – | – | – | < 25 | 50 to 75 | < 25 | 25 to 50 | – | –

Further lines, with some results ahead:

inhibition at 5 min, 1 μM [5] [%] | inhibition at 5 min, 10 μM [5] [%] | SMILES | hERG 1 μM (ion-channel inhibition) [1] | hERG 10 μM (ion-channel inhibition) [1] | Cav1.2 1 μM (ion-channel inhibition) [2] | CaV 1.2 10 μM (ion-channel inhibition) [2] | inhibition at 1 μM [3] [%] | inhibition at 10 μM [3] [%] | inhibition at 5 min, 1 μM [4] [%] | inhibition at 5 min, 10 μM [4] [%] | Iks 1 μM (ion-channel inhibition) ([6]; 1 μM test article) | Iks 10 μM (ion-channel inhibition) ([6]; 10 μM test article)
< 25 | – | CC[N+](C)(CC)CCOc1ccc2ccccc2c1Sc1c(OC)ccc2ccccc12 [Compound A191, diethyl(2-((1-((2-methoxynaphthalen-1-yl)thio)naphthalen-2-yl)oxy)ethyl)(methyl)-14-azane, iodide salt] | – | – | – | – | 75 to 100 | 75 to 100 | 25 to 50 | 75 to 100 | – | –
< 25 | 25 to 50 | COc1ccc2ccccc2c1Cc1c(OCC[N+]2(C)CCOCC2)ccc2ccccc12 [Compound A130-2, 4-(2-((1-((2-methoxynaphthalen-1-yl)methyl)naphthalen-2-yl)oxy)ethyl)-4-methylmorpholin-4-ium formate] | – | – | – | – | 75 to 100 | – | 50 to 75 | 75 to 100 | – | –
< 25 | 75 to 100 | CCN(CC)CCCOc1ccc2ccccc2c1Cc1c(O)ccc2ccccc12 [Compound A135, 1-((2-(3-(diethylamino)propoxy)naphthalen-1-yl)methyl)naphthalen-2-ol] | – | – | – | – | 75 to 100 | 75 to 100 | 25 to 50 | 75 to 100 | – | –
25 to 50 | 75 to 100 | CN(C)CCOc1ccc2ccccc2c1Cc1c(O)ccc2ccccc12 [Compound A134, 1-((2-(2-(dimethylamino)ethoxy)naphthalen-1-yl)methyl)naphthalen-2-ol] | – | – | – | – | 75 to 100 | 75 to 100 | < 25 | 75 to 100 | – | –
